Results as given in patent US5795899A, “Soluble salts of 4-amino-2-(4,4-dimethylimidazolidin-2-on-1-yl) pyrimidine-5-carboxylic acid N-methyl-N-(3-trifluoromethylphenyl)-amide, a process for the preparation thereof, the use thereof as pharmaceuticals and starting materials” (Hoechst Aktiengesellschaft, priority 1992, dated 1998).

Columns and labels:
serum lipoproteins = test: Effect on serum lipoproteins of normolipemic male rats in a subchronic test; assay type: in vivo, male Wistar rats, HOE: WISKf (SPF 71) strain; settings: for % change compared with control, protein LDL / % change compared with control, total cholesterol LDL / % change compared with control, total cholesterol VLDL / % change compared with control, triglycerides VLDL: oral, 7 days
Procedure: 4.1 Effect on serum lipoproteins of normolipemic male rats in a subchronic test
Groups of in each case 10 male rats of the HOE: WISKf (SPF 71) strain with an initial weight above 180 g received once a day (in the morning) the test product or the comparison product in 1% aqueous ®Tylose MH 300 solution by stomach tube (0.5 ml/100 g of body weight); the control group in each case received only the vehicle. The last (7th) administration took place 24 hours before removal of blood and sacrifice. There was free access to food and water during the test. The food was withdrawn 24 hours before the removal of blood.
The serum from all 10 rats in a group was pooled for the analysis of the serum lipoproteins. The serum lipoproteins were separated with a preparative ultracentrifuge (KONTRON TGA 65, Rotor BECKMAN 50.4 Ti).
The following conditions specified by Koga, S., Horwitz, D. L., and Scanu, A. M., Journal of Lipid Research 10, 577 (1969) and Havel, R. J., Eder, H. A., and Bragdon, H. H., J. Clin. Invest. 34, 1345 (1955) were used to separate VLDL, LDL and HDL:
Test kits from BOEHRINGER/Mannheim were used for the enzymatic determination of cholesterol and triglycerides in the separated lipoprotein fractions (compare Siedel, J., Schlumberger, H., Klose, S., Ziegenhorn, J. and Wahlefeld, A. W., J. Clin. Chem. Clin. Biochem. 19, 838 (1981) and Wahlefeld, A. W., in: H. O. Bergmeier: Methoden der enzymatischen Analyse (Methods of Enzymatic Analysis), 2nd edition, Volume II, Verlag Chemie 1974, page 1878). The proteins were determined by the method of Lowry (Lowry, O. H., Roseborough, N. J., Farr, A. L. and R. J. Randell, J. Biol. Chem. 193, 265 (1951)).
Clofibrate was used as comparison product.

hypercholesterolemia = test: Effect on experimental hypercholesterolemia in male rats; assay type: in vivo, male Wistar rats, HOE: WISKf (SPF 71) strain; settings: oral, 7 days; for Total cholesterol (x): mean x
Procedure: Groups of in each case 10 male rats of the HOE: WISKf (SPF 71) strain with a weight of about 200 g received each day in the morning a cocktail which contained the substances required to generate a combined dietetic/hormonal hypercholesterolemia, and in each case the product to be tested for the inhibition of hypercholesterolemia, in appropriate dosage. The cocktail was composed of a mixture of 100 g of cholesterol, 30 g of propylthiouracil and 100 g of cholic acid in 1 l of peanut oil. 1 ml of this/100 g of body weight was administered by gavage. The products to be tested were suspended in this cocktail in a concentration such that it contained the daily dose indicated in Table 4 on administration of the amount mentioned above. The other procedure for the treatment and the analysis of the individual parameters were carried out as indicated under 4.1.
Clofibrate was used as comparison product. The results are compiled in Table 4, wherein a) indicates the absolute values and b) indicates the percentage changes.

[1] = system: carbohydrate-induced hypertriglyceridemia; test: Inhibition of carbohydrate-induced hypertriglyceridemia; assay type: in vivo, male Sprague-Dawley rats; settings: oral, 4 days; for Triglycerides in serum (x): mean x
Procedure: Groups of in each case 10 male Sprague-Dawley rats (supplied by the breeder Mollegard with a weight of 250-280 g) received on each of 4 consecutive days one administration of the compound dissolved in PEG 400 by gavage. In addition, after the 3rd administration and 8 and 24 hours later they received 2.5 g of fructose/kg, likewise by gavage. Moreover, after the 3rd administration of product, 50% strength fructose solution was offered to them as drinking water ad libitum, and the food was withdrawn. Retroorbital removal of blood, from which the serum was obtained for the triglyceride determination and VLDL preparation in the ultracentrifuge (flotation at d=1.006), took place 3 hours after the last product/fructose administration. The food received by the animals from 1 week before the 1st administration and up to the 3rd administration was a diet with 40% casein in the feed meal.
The animals develop, as a result of this treatment, a hypertriglyceridemia which approximately corresponds to Fredrickson phenotype IV in humans. The serum triglycerides of the normal animals increased from 0.54 to 1.1 mmol/l, and the VLDL triglycerides from 0.67 to 1.81.

[2] = Side effects like those observed with the statins; settings: general statement
[3] = system: tumor cells (L 1210, A 549, HT 29); test: Cell proliferation inhibition (MTT assay), overall statement; assay type: cell-based, mouse and human
Procedure: The reduced inhibitory effect on cell proliferation was tested on exponentially growing animal (mouse leukemia cells, L 1210) and human (bronchial carcinoma cells, A 549; colon carcinoma cells, HT 29) tumor cells. This entailed the tumor cells being incubated in RPMI standard medium with various concentrations of the test substances for 72 hours. Cell incubations only in fresh medium served as control. Incubations were set up in quadruplet. […] After incubation for a further 7 to 24 hours, the cell supernatant was carefully removed and the formazan dye in the cells was solubilized by adding DMSO and measured quantitatively by photometry at 492 nm. The ratio of the extinction of the substance incubations to the control incubation was quantified. The coefficient of variation in each incubation series was less than 15%. The following Table 6 indicates the IC50 values (IC50 [μg/ml] is the concentration of the test substance per ml which is necessary for 50% inhibition) from these investigations.

physchem = settings: water

## CN(C(=O)c1cnc(N2CC(C)(C)NC2=O)nc1N)c1cccc(C(F)(F)F)c1 [Compound I, 4-amino-2-(4,4-dimethylimidazolidin-2-on-1-yl)pyrimidine-5-carboxylic acid N-methyl-N-(3-trifluoromethylphenyl)amide]
Serum lipoproteins; 1 mg/kg/day
  % change compared with control, protein LDL: -15%
  % change compared with control, total cholesterol LDL: -17%
  % change compared with control, total cholesterol VLDL: +4%
  % change compared with control, triglycerides VLDL: +8%
Serum lipoproteins; 3 mg/kg/day
  % change compared with control, protein LDL: -25%
  % change compared with control, total cholesterol LDL: -32%
  % change compared with control, total cholesterol VLDL: -24%
  % change compared with control, triglycerides VLDL: -25%
Serum lipoproteins; 10 mg/kg/day
  % change compared with control, protein LDL: -41%
  % change compared with control, total cholesterol LDL: -49%
  % change compared with control, total cholesterol VLDL: -52%
  % change compared with control, triglycerides VLDL: -62%
Serum lipoproteins; 30 mg/kg/day
  % change compared with control, protein LDL: -52%
  % change compared with control, total cholesterol LDL: -64%
  % change compared with control, total cholesterol VLDL: -59%
  % change compared with control, triglycerides VLDL: -79%
Serum lipoproteins; general statement
  HDL levels (in words): unaffected
hypercholesterolemia; 10 mg/kg/day
  % change compared with control, protein "HDL" d > 1.04: -7%
  % change compared with control, protein LDL: -16%
  % change compared with control, protein VLDL: -8%
  % change compared with control, total cholesterol "HDL" d > 1.04: -14%
  % change compared with control, total cholesterol LDL: -13%
  % change compared with control, total cholesterol VLDL: -34%
  % change compared with control, triglycerides VLDL: -54%
  Lipoprotein fraction protein "HDL": 5004
  Lipoprotein fraction protein LDL: 1040
  Lipoprotein fraction protein VLDL: 1981
  Lipoprotein fraction total cholesterol "HDL": 508
  Lipoprotein fraction total cholesterol LDL: 4099
  Lipoprotein fraction total cholesterol VLDL: 3088
  Lipoprotein fraction triglycerides VLDL: 677
  Serum % change compared with control at the end of treatment, total cholesterol: -24%
  Serum % change compared with control at the end of treatment, triglycerides: -16%
  Triglycerides, pool: 2.45 mmol/L
  Total cholesterol (x): 556 mg/dL
hypercholesterolemia; 30 mg/kg/day
  % change compared with control, protein "HDL" d > 1.04: -24%
  % change compared with control, protein LDL: -68%
  % change compared with control, protein VLDL: -49%
  % change compared with control, total cholesterol "HDL" d > 1.04: +79%
  % change compared with control, total cholesterol LDL: -92%
  % change compared with control, total cholesterol VLDL: -97%
  % change compared with control, triglycerides VLDL: -71%
  Lipoprotein fraction protein "HDL": 4090
  Lipoprotein fraction protein LDL: 391
  Lipoprotein fraction protein VLDL: 1105
  Lipoprotein fraction total cholesterol "HDL": 1056
  Lipoprotein fraction total cholesterol LDL: 369
  Lipoprotein fraction total cholesterol VLDL: 126
  Lipoprotein fraction triglycerides VLDL: 425
  Serum % change compared with control at the end of treatment, total cholesterol: -81%
  Serum % change compared with control at the end of treatment, triglycerides: -62%
  Triglycerides, pool: 1.10 mmol/L
  Total cholesterol (x): 137 mg/dL
[1]; 1 mg/kg/day
  Triglycerides in serum, % change from fructose control: -36%
  Triglycerides in the VDVL fraction, % change from fructose control: -45%
  Triglycerides in the VDVL fraction, pool n = 10: 1.00 mmol/L
  Triglycerides in serum (x): 0.71 mmol/L
[1]; 3 mg/kg/day
  Triglycerides in serum, % change from fructose control: -51%
  Triglycerides in the VDVL fraction, % change from fructose control: -62%
  Triglycerides in the VDVL fraction, pool n = 10: 0.69 mmol/L
  Triglycerides in serum (x): 0.54 mmol/L
[1]; 10 mg/kg/day
  Triglycerides in serum, % change from fructose control: -68%
  Triglycerides in the VDVL fraction, % change from fructose control: -80%
  Triglycerides in the VDVL fraction, pool n = 10: 0.37 mmol/L
  Triglycerides in serum (x): 0.35 mmol/L
[1]; 30 mg/kg/day
  Triglycerides in serum, % change from fructose control: -74%
  Triglycerides in the VDVL fraction, % change from fructose control: -90%
  Triglycerides in the VDVL fraction, pool n = 10: 0.19 mmol/L
  Triglycerides in serum (x): 0.29 mmol/L
[2]
  Side effects of the statin type observed to date: Nor have side effects of this type been observed to date
[3]
  Proliferation inhibition compared with imanixil (HOE 402) / its hydrochloride (in words): distinctly reduced proliferation inhibition
other
  Solubility in water (in words): exceptionally slightly soluble in water
Table 2, Temp. [°C]: hydrochloride 25.0, nitrate 23.5, p-toluenesulfonate 23.2, hydrogen (R,R)-tartrate 24.6, free base 24.8
  1 part by mass dissolves in . . . parts of H2 O: 1220 parts of H2 O
physchem
  solubility: 800 µg/mL
physchem; Solubility in water: molarity, Table 2, free base, 24.8 °C
  solubility: 2000 µM
